Read-outs that look alike come from different tables or passages of the source.
Target: T1, mouse TMEM16A mutant Y598A (Mus musculus, UniProt Q8BHY3, Y598A)
T1 construct: expressed in transfected cells; host or cells: HEK293T
T1 sequence (Q8BHY3 1-960 Y598A): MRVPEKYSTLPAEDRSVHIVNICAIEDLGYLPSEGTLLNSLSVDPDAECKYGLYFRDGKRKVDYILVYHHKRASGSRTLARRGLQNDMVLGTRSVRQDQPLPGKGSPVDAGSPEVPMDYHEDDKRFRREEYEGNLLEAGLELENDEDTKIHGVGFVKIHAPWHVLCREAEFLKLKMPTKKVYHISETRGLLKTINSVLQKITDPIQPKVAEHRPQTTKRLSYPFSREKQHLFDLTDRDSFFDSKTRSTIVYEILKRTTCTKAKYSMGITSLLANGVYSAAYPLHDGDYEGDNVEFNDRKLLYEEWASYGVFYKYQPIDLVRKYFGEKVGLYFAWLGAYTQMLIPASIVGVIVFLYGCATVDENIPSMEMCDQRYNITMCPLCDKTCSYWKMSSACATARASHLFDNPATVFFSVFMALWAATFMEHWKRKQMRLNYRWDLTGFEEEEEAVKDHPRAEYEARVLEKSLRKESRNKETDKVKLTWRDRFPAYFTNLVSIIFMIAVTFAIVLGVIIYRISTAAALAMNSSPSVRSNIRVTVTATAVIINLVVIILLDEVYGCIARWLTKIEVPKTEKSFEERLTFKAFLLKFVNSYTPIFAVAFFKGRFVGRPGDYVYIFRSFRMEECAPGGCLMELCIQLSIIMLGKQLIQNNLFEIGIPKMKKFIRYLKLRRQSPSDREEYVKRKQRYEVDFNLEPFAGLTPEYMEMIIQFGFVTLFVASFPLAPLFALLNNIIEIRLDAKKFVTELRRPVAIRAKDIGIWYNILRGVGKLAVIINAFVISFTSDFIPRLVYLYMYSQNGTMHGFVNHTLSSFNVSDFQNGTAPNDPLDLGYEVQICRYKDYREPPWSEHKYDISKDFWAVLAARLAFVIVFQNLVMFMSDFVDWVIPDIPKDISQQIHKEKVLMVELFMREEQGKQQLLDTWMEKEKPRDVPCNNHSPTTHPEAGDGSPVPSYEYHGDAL
Assay: Inside-out patch recording of 1PBC block, mutant Y598A
Type: cell-based
Details: for remaining activity at 3 µM: 1PBC conc 3; for remaining activity at 3 µM / remaining activity at 10 µM / remaining activity at 30 µM: read-out: relative current in 1PBC (avr); for remaining activity at 10 µM: 1PBC conc 10; for remaining activity at 30 µM: 1PBC conc 30
Method: HEK293T cells (ATCC CRL-1573) were maintained in Dulbecco’s modified Eagle’s medium (DMEM; Sigma-Aldrich) supplemented with 10 U ml^−1 penicillin, 0.1 mg ml^−1 streptomycin (Sigma-Aldrich), 2 mM L-glutamine (Sigma-Aldrich), and 10% FBS (Sigma-Aldrich) in a humidified atmosphere containing 5% CO2 at 37 °C. HEK293S GnTI^− cells (ATCC CRL-3022) were maintained in HyClone HyCell TransFx-H medium (GE Healthcare) supplemented with 10 U ml^−1 penicillin, 0.1 mg ml^−1 streptomycin, 4 mM L-glutamine, 0.15% poloxamer 188 (Sigma-Aldrich), and 1% FBS in an atmosphere containing 5% CO2 at 185 rpm at 37 °C. The ac splice variant of mouse TMEM16A (UniProt ID: Q8BHY3), mouse TMEM16B (UniProt ID: Q8CFW1), or mouse TMEM16F (UniProt ID: Q6P9J9) bearing a 3C cleavage site, a Venus YFP, a Myc tag, and a Streptavidin-binding peptide (SBP) downstream of the open reading frame in a modified pcDNA3.1 vector (Invitrogen) were used as described previously[21],[31]. Mutations were introduced using a modified QuikChange method[58] and were verified by sequencing.
HEK293T cells were transfected with 3–4 μg DNA per 6 cm Petri dish using the calcium phosphate co-precipitation method and were used within 24–96 h after transfection. Recordings were performed on inside-out patches excised from HEK293T cells expressing the construct of interest. Patch pipettes were pulled from borosilicate glass capillaries (O.D. 1.5 mm, I.D. 0.86 mm, Sutter Instrument) and were fire-polished with a microforge (Narishige) before use. Pipette resistance was typically 3–8 MΩ when filled with the recording solutions detailed below. Seal resistance was typically 4 GΩ or higher. Voltage-clamp recordings were made using Axopatch 200B, Digidata 1550, and Clampex 10.7 (Molecular Devices). Analog signals were filtered with the in-built 4-pole Bessel filter at 10 kHz and were digitized at 20 kHz. Solution exchange was achieved using a gravity-fed system through a theta glass pipette mounted on an ultra-fast piezo-driven stepper (Siskiyou). […] All recordings were performed at 20 °C.
A symmetrical ionic condition was used throughout. Stock solution with Ca^2+-EGTA contained 150 mM NaCl, 5.99 mM Ca(OH)2, 5 mM EGTA, and 10 mM HEPES at pH 7.40. Stock solution with EGTA contained 150 mM NaCl, 5 mM EGTA, and 10 mM HEPES at pH 7.40. Free Ca^2+ concentrations were adjusted by mixing the stock solutions at the required ratios calculated using the WEBMAXC program (http://web.stanford.edu/~cpatton/webmaxcS.htm). Patch pipettes were filled with the stock solution with Ca^2+-EGTA, which has a free Ca^2+ concentration of 1 mM. 1PBC (ChemBridge) stock was reconstituted in anhydrous DMSO (Sigma-Aldrich) at 100 mM and stored at −20 °C. Working solutions with 1PBC were prepared by serial dilution. Unless otherwise stated, experiments were performed at a saturating Ca^2+ concentration as shown in Supplementary Table 1 and the primary data were corrected for current rundown as described previously[21],[25].
Concentration-response relations, obtained from the ratio of the I-V plots before and after the application of the blocker, were fitted to the Hill equation,1 I/Imax=1/1+IC50/[blocker]^h where I/Imax is the normalized current responses, IC50 defines the concentration at which inhibition is at its half-maximum, and h is the Hill coefficient.

SMILES: N#Cc1c(C(F)(F)F)cc(O)n2c1nc1ccccc12 [1PBC]
- IC50 (0 mV, 2 µM Ca2+): 5 µM
- remaining activity at 3 µM (0 mV): 62.2%
- remaining activity at 10 µM (0 mV): 32.7%
- remaining activity at 30 µM (0 mV): 16.1%
- normalised current (avr) (1PBC 3, V 0 mV): -0.0008127
- normalised current (avr) (1PBC 3, V 20 mV): 0.0806
- normalised current (avr) (1PBC 3, V 40 mV): 0.1479
- normalised current (avr) (1PBC 3, V 60 mV): 0.2094
- normalised current (avr) (1PBC 3, V 80 mV): 0.2692
- normalised current (avr) (1PBC 3, V 100 mV): 0.3374
- normalised current (avr) (1PBC 3, V 120 mV): 0.4035
- normalised current (avr) (1PBC 3, V 140 mV): 0.5334
- normalised current (avr) (1PBC 3, V -20 mV): -0.0953
- normalised current (avr) (1PBC 3, V -40 mV): -0.2038
- normalised current (avr) (1PBC 3, V -60 mV): -0.3243
- normalised current (avr) (1PBC 3, V -80 mV): -0.4624
- normalised current (avr) (1PBC 3, V -100 mV): -0.5959
- normalised current (avr) (1PBC 3, V -120 mV): -0.7447
- normalised current (avr) (1PBC 3, V -140 mV): -0.8933
- normalised current (avr) (1PBC 10, V 0 mV): -0.0004268
- normalised current (avr) (1PBC 10, V 20 mV): 0.04176
- normalised current (avr) (1PBC 10, V 40 mV): 0.07281
- normalised current (avr) (1PBC 10, V 60 mV): 0.101
- normalised current (avr) (1PBC 10, V 80 mV): 0.1339
- normalised current (avr) (1PBC 10, V 100 mV): 0.1691
- normalised current (avr) (1PBC 10, V 120 mV): 0.2139
- normalised current (avr) (1PBC 10, V 140 mV): 0.279
- normalised current (avr) (1PBC 10, V -20 mV): -0.05063
- normalised current (avr) (1PBC 10, V -40 mV): -0.1149
- normalised current (avr) (1PBC 10, V -60 mV): -0.2039
- normalised current (avr) (1PBC 10, V -80 mV): -0.3102
- normalised current (avr) (1PBC 10, V -100 mV): -0.4329
- normalised current (avr) (1PBC 10, V -120 mV): -0.5455
- normalised current (avr) (1PBC 10, V -140 mV): -0.6513
- normalised current (avr) (1PBC 30, V 0 mV): -0.0002099
- normalised current (avr) (1PBC 30, V 20 mV): 0.02319
- normalised current (avr) (1PBC 30, V 40 mV): 0.04085
- normalised current (avr) (1PBC 30, V 60 mV): 0.05628
- normalised current (avr) (1PBC 30, V 80 mV): 0.08124
- normalised current (avr) (1PBC 30, V 100 mV): 0.1064
- normalised current (avr) (1PBC 30, V 120 mV): 0.1384
- normalised current (avr) (1PBC 30, V 140 mV): 0.17
- normalised current (avr) (1PBC 30, V -20 mV): -0.02219
- normalised current (avr) (1PBC 30, V -40 mV): -0.05555
- normalised current (avr) (1PBC 30, V -60 mV): -0.09343
- normalised current (avr) (1PBC 30, V -80 mV): -0.1537
- normalised current (avr) (1PBC 30, V -100 mV): -0.2141
- normalised current (avr) (1PBC 30, V -120 mV): -0.2888
- normalised current (avr) (1PBC 30, V -140 mV): -0.3717
- IC50 (20 mV, 2 µM Ca2+): 4.35 µM
- remaining activity at 3 µM (20 mV): 57.7%
- remaining activity at 10 µM (20 mV): 29.9%
- remaining activity at 30 µM (20 mV): 16.6%
- IC50 (40 mV, 2 µM Ca2+): 3.57 µM
- remaining activity at 3 µM (40 mV): 52.9%
- remaining activity at 10 µM (40 mV): 26.1%
- remaining activity at 30 µM (40 mV): 14.6%
- IC50 (60 mV, 2 µM Ca2+): 3.16 µM
- remaining activity at 3 µM (60 mV): 49.9%
- remaining activity at 10 µM (60 mV): 24.1%
- remaining activity at 30 µM (60 mV): 13.4%
- log-fold IC50 (change of mutant vs WT) (80 mV): 0.1976
- IC50 (80 mV, 2 µM Ca2+): 3.04 µM
- remaining activity at 3 µM (80 mV): 48.1%
- remaining activity at 10 µM (80 mV): 23.9%
- remaining activity at 30 µM (80 mV): 14.5%
- IC50 (100 mV, 2 µM Ca2+): 3.06 µM
- remaining activity at 3 µM (100 mV): 48%
- remaining activity at 10 µM (100 mV): 24.1%
- remaining activity at 30 µM (100 mV): 15.1%
- IC50 (120 mV, 2 µM Ca2+): 3.13 µM
- remaining activity at 3 µM (120 mV): 47.7%
- remaining activity at 10 µM (120 mV): 25.3%
- remaining activity at 30 µM (120 mV): 16.4%
- IC50 (140 mV, 2 µM Ca2+): 3.81 µM
- remaining activity at 3 µM (140 mV): 53.3%
- remaining activity at 10 µM (140 mV): 27.9%
- remaining activity at 30 µM (140 mV): 17%
- IC50 (-20 mV, 2 µM Ca2+): 5.71 µM
- remaining activity at 3 µM (-20 mV): 66.7%
- remaining activity at 10 µM (-20 mV): 35.5%
- remaining activity at 30 µM (-20 mV): 15.5%
- IC50 (-40 mV, 2 µM Ca2+): 7.02 µM
- remaining activity at 3 µM (-40 mV): 71.1%
- remaining activity at 10 µM (-40 mV): 40.1%
- remaining activity at 30 µM (-40 mV): 19.4%
- IC50 (-60 mV, 2 µM Ca2+): 8.86 µM
- remaining activity at 3 µM (-60 mV): 75.3%
- remaining activity at 10 µM (-60 mV): 47.3%
- remaining activity at 30 µM (-60 mV): 21.7%
- IC50 (-80 mV, 2 µM Ca2+): 11.2 µM
- remaining activity at 3 µM (-80 mV): 79.4%
- remaining activity at 10 µM (-80 mV): 53.2%
- remaining activity at 30 µM (-80 mV): 26.4%
- IC50 (-100 mV, 2 µM Ca2+): 13.5 µM
- remaining activity at 3 µM (-100 mV): 81.5%
- remaining activity at 10 µM (-100 mV): 59.2%
- remaining activity at 30 µM (-100 mV): 29.3%
- IC50 (-120 mV, 2 µM Ca2+): 15.9 µM
- remaining activity at 3 µM (-120 mV): 85.1%
- remaining activity at 10 µM (-120 mV): 62.4%
- remaining activity at 30 µM (-120 mV): 33%
- IC50 (-140 mV, 2 µM Ca2+): 18 µM
- remaining activity at 3 µM (-140 mV): 87.9%
- remaining activity at 10 µM (-140 mV): 64.1%
- remaining activity at 30 µM (-140 mV): 36.6%
- IC50 (Y598A, V 0 mV): 5 µM
- IC50 (Y598A, V 20 mV): 4.35 µM
- IC50 (Y598A, V 40 mV): 3.57 µM
- IC50 (Y598A, V 60 mV): 3.16 µM
- IC50 (Y598A, V 80 mV): 3.04 µM
- IC50 (Y598A, V 100 mV): 3.06 µM
- IC50 (Y598A, V 120 mV): 3.13 µM
- IC50 (Y598A, V 140 mV): 3.81 µM
- IC50 (Y598A, V -20 mV): 5.71 µM
- IC50 (Y598A, V -40 mV): 7.02 µM
- IC50 (Y598A, V -60 mV): 8.86 µM
- IC50 (Y598A, V -80 mV): 11.2 µM
- IC50 (Y598A, V -100 mV): 13.5 µM
- IC50 (Y598A, V -120 mV): 15.9 µM
- IC50 (Y598A, V -140 mV): 18 µM
